Test system: HEL
Test: not given
Settings: human, 72 h

Structure (SMILES)	CC50 [µM]
Nc1ncnc2c1ncn2CCOCP(=O)(OCCOCCCCCCCCCCO)OCCOCCCCCCCCCCO	62.5
CCOCCOCCOCCOCCOCCOCCOP(=O)(O)COCCn1cnc2c(N)ncnc21	146
Cc1oc(=O)oc1COP(=O)(O)COCCn1cnc2c(N)ncnc21	117
Nc1nc2c(ncn2COCCO)c(=O)[nH]1 [ACYCLOVIR]	≥ 1420
O=c1[nH]c(=O)n([C@H]2C[C@H](O)[C@@H](CO)O2)cc1/C=C/Br [BRIVUDINE]	470
Nc1ccn(C[C@@H](CO)OCP(=O)(O)O)c(=O)n1 [CIDOFOVIR]	234
Nc1nc(O)c2ncn(COC(CO)CO)c2n1 [GANCICLOVIR]	435

Test system: not given
Test: not given
Settings: cat, crfk, 72 h

Structure (SMILES)	CC50 [µM]
Nc1ncnc2c1ncn2CCOCP(=O)(O)OCCCCCCCCC(O)CO (stereo unspecified)	9.4
Nc1ncnc2c1ncn2CCOCP(=O)(OCCOCCCCCCCCCCO)OCCOCCCCCCCCCCO	> 148
Nc1nc(O)c2ncn(COC(CO)CO)c2n1 [GANCICLOVIR]	> 394

Test system: HeLa
Test: not given
Settings: human, 72 h

Structure (SMILES)	CC50 [µM]
Nc1ncnc2c1ncn2CCOCP(=O)(OCCOCCCCCCCCCCO)OCCOCCCCCCCCCCO	148
Nc1ncnc2c1ncn2CCOCP(=O)(O)O [ADEFOVIR]	> 250

Test system: CCRF-CEM
Test: not given
Settings: human, 72 h

Structure (SMILES)	CC50 [µM]
Nc1ncnc2c1ncn2CCOCP(=O)(OCCOCCCCCCCCCCO)OCCOCCCCCCCCCCO	13.5
Cc1oc(=O)oc1COP(=O)(O)COCCn1cnc2c(N)ncnc21	88
Nc1ncnc2c1ncn2CCOCP(=O)(O)O [ADEFOVIR]	164

Test system: not listed separately
Test: in vitro
Settings: human, HeLa cells

Structure (SMILES)	CC50 at 72 h [µM]
NC(=O)c1ncn([C@@H]2O[C@H](CO)[C@@H](O)[C@H]2O)n1 [RIBAVIRIN]	> 250

Test system: Human alphaherpesvirus 1
Test: microbe, parasite or virus in culture
Settings: Human alphaherpesvirus 1, KOS, HEL

Structure (SMILES)	EC50 [µM]
Nc1ncnc2c1ncn2CCOCP(=O)(OCCOCCCCCCCCCCO)OCCOCCCCCCCCCCO	> 29.7
Cc1oc(=O)oc1COP(=O)(O)COCCn1cnc2c(N)ncnc21	51.9
Nc1ccn(C[C@@H](CO)OCP(=O)(O)OCCOCCOCCOCCOCCOCCO)c(=O)n1	16.5
Nc1ncnc2c1ncn2CCOCP(=O)(O)O [ADEFOVIR]	42.5
Nc1ccn(C[C@@H](CO)OCP(=O)(O)O)c(=O)n1 [CIDOFOVIR]	1.6

Test system: Human alphaherpesvirus 1
Test: microbe, parasite or virus in culture
Settings: Human alphaherpesvirus 1, KOS, HEL
Remark: another data set of the same source

Structure (SMILES)	EC50 [µM]
Nc1ncnc2c1ncn2CCOCP(=O)(OCCOCCCCCCCCCCO)OCCOCCCCCCCCCCO	> 29.7
Cc1oc(=O)oc1COP(=O)(O)COCCn1cnc2c(N)ncnc21	51.9
Nc1ccn(C[C@@H](CO)OCP(=O)(O)OCCOCCOCCOCCOCCOCCO)c(=O)n1	12.9
Nc1ncnc2c1ncn2CCOCP(=O)(O)O [ADEFOVIR]	41.4
O=c1[nH]c(=O)n([C@H]2C[C@H](O)[C@@H](CO)O2)cc1/C=C/Br [BRIVUDINE]	274

Test system: Human alphaherpesvirus 2
Test: microbe, parasite or virus in culture
Settings: Human alphaherpesvirus 2, strain G, HEL

Structure (SMILES)	EC50 [µM]
Nc1ncnc2c1ncn2CCOCP(=O)(OCCOCCCCCCCCCCO)OCCOCCCCCCCCCCO	> 29.7
Cc1oc(=O)oc1COP(=O)(O)COCCn1cnc2c(N)ncnc21	98.6
Nc1ccn(C[C@@H](CO)OCP(=O)(O)OCCOCCOCCOCCOCCOCCO)c(=O)n1	7.4
Nc1ncnc2c1ncn2CCOCP(=O)(O)O [ADEFOVIR]	24.9
O=c1[nH]c(=O)n([C@H]2C[C@H](O)[C@@H](CO)O2)cc1/C=C/Br [BRIVUDINE]	45.7
Nc1ccn(C[C@@H](CO)OCP(=O)(O)O)c(=O)n1 [CIDOFOVIR]	1.43
Nc1nc(O)c2ncn(COC(CO)CO)c2n1 [GANCICLOVIR]	0.027

Test system: Human alphaherpesvirus 3
Test: microbe, parasite or virus in culture
Settings: Human alphaherpesvirus 3, strain Oka vaccine, HEL

Structure (SMILES)	EC50 [µM]
Nc1ncnc2c1ncn2CCOCP(=O)(OCCOCCCCCCCCCCO)OCCOCCCCCCCCCCO	> 29.7
CCOCCOCCOCCOCCOCCOCCOP(=O)(O)COCCn1cnc2c(N)ncnc21	74.3
Cc1oc(=O)oc1COP(=O)(O)COCCn1cnc2c(N)ncnc21	1.92
Nc1ccn(C[C@@H](CO)OCP(=O)(O)OCCOCCOCCOCCOCCOCCO)c(=O)n1	1.91
Nc1ncnc2c1ncn2CCOCP(=O)(O)O [ADEFOVIR]	6.7
O=c1[nH]c(=O)n([C@H]2C[C@H](O)[C@@H](CO)O2)cc1/C=C/Br [BRIVUDINE]	0.013
Nc1ccn(C[C@@H](CO)OCP(=O)(O)O)c(=O)n1 [CIDOFOVIR]	0.29

Test system: Human alphaherpesvirus 3
Test: microbe, parasite or virus in culture
Settings: Human alphaherpesvirus 3, 07/1, HEL

Structure (SMILES)	EC50 [µM]
Nc1ncnc2c1ncn2CCOCP(=O)(OCCOCCCCCCCCCCO)OCCOCCCCCCCCCCO	> 29.7
CCOCCOCCOCCOCCOCCOCCOP(=O)(O)COCCn1cnc2c(N)ncnc21	69
Cc1oc(=O)oc1COP(=O)(O)COCCn1cnc2c(N)ncnc21	7.6
Nc1ccn(C[C@@H](CO)OCP(=O)(O)OCCOCCOCCOCCOCCOCCO)c(=O)n1	0.6
Nc1nc2c(ncn2COCCO)c(=O)[nH]1 [ACYCLOVIR]	69.3
Nc1ncnc2c1ncn2CCOCP(=O)(O)O [ADEFOVIR]	5
O=c1[nH]c(=O)n([C@H]2C[C@H](O)[C@@H](CO)O2)cc1/C=C/Br [BRIVUDINE]	≥ 105
Nc1ccn(C[C@@H](CO)OCP(=O)(O)O)c(=O)n1 [CIDOFOVIR]	0.1

Test system: Human betaherpesvirus 5
Test: microbe, parasite or virus in culture
Settings: Human betaherpesvirus 5, AD169, HEL

Structure (SMILES)	EC50 [µM]
Nc1ncnc2c1ncn2CCOCP(=O)(OCCOCCCCCCCCCCO)OCCOCCCCCCCCCCO	> 29.7
Nc1ccn(C[C@@H](CO)OCP(=O)(O)OCCOCCOCCOCCOCCOCCO)c(=O)n1	0.8
Nc1ncnc2c1ncn2CCOCP(=O)(O)O [ADEFOVIR]	118
Nc1ccn(C[C@@H](CO)OCP(=O)(O)O)c(=O)n1 [CIDOFOVIR]	0.92

Test system: Human betaherpesvirus 5
Test: microbe, parasite or virus in culture
Settings: Human betaherpesvirus 5, Davis, HEL

Structure (SMILES)	EC50 [µM]
Nc1ncnc2c1ncn2CCOCP(=O)(OCCOCCCCCCCCCCO)OCCOCCCCCCCCCCO	> 29.7
Nc1ccn(C[C@@H](CO)OCP(=O)(O)OCCOCCOCCOCCOCCOCCO)c(=O)n1	0.7
Nc1ncnc2c1ncn2CCOCP(=O)(O)O [ADEFOVIR]	115
Nc1ccn(C[C@@H](CO)OCP(=O)(O)O)c(=O)n1 [CIDOFOVIR]	0.94

Test system: Felid alphaherpesvirus 1
Test: microbe, parasite or virus in culture
Settings: Felid alphaherpesvirus 1, CRFK

Structure (SMILES)	EC50 [µM]
Nc1ncnc2c1ncn2CCOCP(=O)(O)OCCCCCCCCC(O)CO (stereo unspecified)	> 9
Nc1ncnc2c1ncn2CCOCP(=O)(OCCOCCCCCCCCCCO)OCCOCCCCCCCCCCO	> 29.7
Nc1ccn(C[C@@H](CO)OCP(=O)(O)OCCOCCOCCOCCOCCOCCO)c(=O)n1	14.5
Nc1nc(O)c2ncn(COC(CO)CO)c2n1 [GANCICLOVIR]	8.1

Test system: Vaccinia virus
Test: microbe, parasite or virus in culture
Settings: Orthopoxvirus vaccinia, HEL

Structure (SMILES)	EC50 [µM]
Nc1ncnc2c1ncn2CCOCP(=O)(OCCOCCCCCCCCCCO)OCCOCCCCCCCCCCO	> 29.7
Nc1ccn(C[C@@H](CO)OCP(=O)(O)OCCOCCOCCOCCOCCOCCO)c(=O)n1	107
Nc1ccn(C[C@@H](CO)OCP(=O)(O)O)c(=O)n1 [CIDOFOVIR]	7
Nc1nc(O)c2ncn(COC(CO)CO)c2n1 [GANCICLOVIR]	> 250

Test system: Human immunodeficiency virus 1
Test: microbe, parasite or virus in culture
Settings: Human immunodeficiency virus 1, 3B, CCRF-CEM, 96 h

Structure (SMILES)	EC50 [µM]
Nc1ncnc2c1ncn2CCOCP(=O)(OCCOCCCCCCCCCCO)OCCOCCCCCCCCCCO	> 29.7
Cc1oc(=O)oc1COP(=O)(O)COCCn1cnc2c(N)ncnc21	10.6
Nc1ncnc2c1ncn2CCOCP(=O)(O)O [ADEFOVIR]	10.4

Test system: Human immunodeficiency virus 2
Test: microbe, parasite or virus in culture
Settings: Human immunodeficiency virus 2, ISOLATE ROD, CCRF-CEM, 96 h

Structure (SMILES)	EC50 [µM]
Nc1ncnc2c1ncn2CCOCP(=O)(OCCOCCCCCCCCCCO)OCCOCCCCCCCCCCO	> 29.7
Cc1oc(=O)oc1COP(=O)(O)COCCn1cnc2c(N)ncnc21	9.3
Nc1ncnc2c1ncn2CCOCP(=O)(O)O [ADEFOVIR]	8.6

Test system: Vesicular stomatitis virus
Test: microbe, parasite or virus in culture
Settings: HEL

Structure (SMILES)	EC50 [µM]
Nc1ncnc2c1ncn2CCOCP(=O)(OCCOCCCCCCCCCCO)OCCOCCCCCCCCCCO	> 29.7

Test system: Vesicular stomatitis virus
Test: microbe, parasite or virus in culture
Settings: HeLa

Structure (SMILES)	EC50 [µM]
Nc1ncnc2c1ncn2CCOCP(=O)(OCCOCCCCCCCCCCO)OCCOCCCCCCCCCCO	> 29.7

Test system: Respiratory syncytial virus
Test: microbe, parasite or virus in culture
Settings: human respiratory syncytial virus, HeLa

Structure (SMILES)	EC50 [µM]
Nc1ncnc2c1ncn2CCOCP(=O)(OCCOCCCCCCCCCCO)OCCOCCCCCCCCCCO	> 29.7
NC(=O)c1ncn([C@@H]2O[C@H](CO)[C@@H](O)[C@H]2O)n1 [RIBAVIRIN]	3

Test system: Coxsackievirus B4
Test: microbe, parasite or virus in culture
Settings: Enterovirus B, HeLa

Structure (SMILES)	EC50 [µM]
Nc1ncnc2c1ncn2CCOCP(=O)(OCCOCCCCCCCCCCO)OCCOCCCCCCCCCCO	> 29.7

Test system: Coxsackievirus B4
Test: microbe, parasite or virus in culture
Settings: Enterovirus B, Vero

Structure (SMILES)	EC50 [µM]
Nc1ncnc2c1ncn2CCOCP(=O)(OCCOCCCCCCCCCCO)OCCOCCCCCCCCCCO	> 29.7
NC(=O)c1ncn([C@@H]2O[C@H](CO)[C@@H](O)[C@H]2O)n1 [RIBAVIRIN]	> 250

Test system: Human respirovirus 3
Test: microbe, parasite or virus in culture
Settings: Human respirovirus 3, Vero

Structure (SMILES)	EC50 [µM]
Nc1ncnc2c1ncn2CCOCP(=O)(OCCOCCCCCCCCCCO)OCCOCCCCCCCCCCO	> 29.7

Test system: Mammalian orthoreovirus 1
Test: microbe, parasite or virus in culture
Settings: Mammalian orthoreovirus 1, Vero

Structure (SMILES)	EC50 [µM]
Nc1ncnc2c1ncn2CCOCP(=O)(OCCOCCCCCCCCCCO)OCCOCCCCCCCCCCO	> 29.7
NC(=O)c1ncn([C@@H]2O[C@H](CO)[C@@H](O)[C@H]2O)n1 [RIBAVIRIN]	≥ 174

Test system: Sindbis virus
Test: microbe, parasite or virus in culture
Settings: Vero

Structure (SMILES)	EC50 [µM]
Nc1ncnc2c1ncn2CCOCP(=O)(OCCOCCCCCCCCCCO)OCCOCCCCCCCCCCO	> 29.7
NC(=O)c1ncn([C@@H]2O[C@H](CO)[C@@H](O)[C@H]2O)n1 [RIBAVIRIN]	> 250

Test system: Punta Toro virus
Test: microbe, parasite or virus in culture
Settings: Vero

Structure (SMILES)	EC50 [µM]
Nc1ncnc2c1ncn2CCOCP(=O)(OCCOCCCCCCCCCCO)OCCOCCCCCCCCCCO	> 29.7

Test system: Feline coronavirus
Test: microbe, parasite or virus in culture
Settings: Alphacoronavirus 1, CRFK

Structure (SMILES)	EC50 [µM]
Nc1ncnc2c1ncn2CCOCP(=O)(O)OCCCCCCCCC(O)CO (stereo unspecified)	> 9
Nc1ncnc2c1ncn2CCOCP(=O)(OCCOCCCCCCCCCCO)OCCOCCCCCCCCCCO	> 29.7

Test system: Influenza A virus
Test: microbe, parasite or virus in culture
Settings: H1N1, MDCK

Structure (SMILES)	EC50 [µM]
Nc1ncnc2c1ncn2CCOCP(=O)(OCCOCCCCCCCCCCO)OCCOCCCCCCCCCCO	> 5.9
NC(=O)c1ncn([C@@H]2O[C@H](CO)[C@@H](O)[C@H]2O)n1 [RIBAVIRIN]	9.8

Test system: Influenza A virus
Test: microbe, parasite or virus in culture
Settings: H3N2, MDCK

Structure (SMILES)	EC50 [µM]
Nc1ncnc2c1ncn2CCOCP(=O)(OCCOCCCCCCCCCCO)OCCOCCCCCCCCCCO	> 5.9

Test system: Influenza B virus
Test: microbe, parasite or virus in culture
Settings: MDCK

Structure (SMILES)	EC50 [µM]
Nc1ncnc2c1ncn2CCOCP(=O)(OCCOCCCCCCCCCCO)OCCOCCCCCCCCCCO	> 5.9

Test system: Human betaherpesvirus 5
Test: microbe, parasite or virus in culture
Settings: Human betaherpesvirus 5, AD169, HFF

Structure (SMILES)	EC50 [µM]
Nc1ccn(C[C@@H](CO)OCP(=O)(O)O)c(=O)n1 [CIDOFOVIR]	1.2

Test system: Human immunodeficiency virus 1
Test: microbe, parasite or virus in culture
Settings: Human immunodeficiency virus 1, LAI, MT2

Structure (SMILES)	EC50 [µM]
Nc1ncnc2c1ncn2CCOCP(=O)(O)O [ADEFOVIR]	1.1

— ChEMBL document CHEMBL1811861 (Bioorg Med Chem, 2011)
